Measured values reported in publication PMC3004914, “Classification of Drugs Based on Properties of Sodium Channel Inhibition: A Comparative Automated Patch-Clamp Study” (PLoS ONE, 2010).
Where “and” joins values, the source holds several entries; their conditions need not be identical. Identical values can stand only once. Like-named read-outs stand apart in the source and are kept apart here.

Tests used:
sodium channels = conditions: averaged literature data, cited from earlier work; for Ki: read-out: Ki−Lit; for Kd: read-out: Kr−Lit
[1] = human plasma, cited from earlier work
[2] = biological target: T1, rNav1.2 sodium channels (HEK-293 cells) (Rattus norvegicus, UniProt P04775); assay: 5 Hz train protocol, QPatch automated patch-clamp; type: cell-based; conditions: for Rev (reversibility): Rev = A5/A1 after washout; for potency estimated from few doses: −90 mV, read-out: IC50;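 on UD (use-dependence of the inhibition): UD = (A3/A4)/(A1/A2) as ratios of peak amplitudes from Figure 1A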
Method in brief: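 rNav1.2 in stable HEK-293 cells, QPatch whole-cell; 5 Hz trains of five pulses from −90 to −10 mV, repeated every 20 s; 10 control trains, 10 with drug, then washout. Inhibition of peak current at a single concentration gave IC50; reversibility, use-dependence and τoff also derived.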

[3] = biological target: T1, rNav1.2 sodium channels (HEK-293 cells); assay: steady-state inactivation protocol (availability curves), QPatch automated patch-clamp; type: cell-based
Method in brief: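 HEK-293 cells stably expressing rat Nav1.2, recorded by automated patch clamp in extracellular solution pH 7.3 containing CdCl2 and TEA. Availability measured with 400 ms pre-pulses from −150 to −30 mV, then a 10 ms test pulse to −10 mV. Kr, Ki (four-state model) and Kr/Ki state-dependence derived from inhibition and ΔV1/2.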

[4] = 100 μM, 500 s assigned where irreversible
[5] = HEK293, 100 μM, −90 mV holding potential, 5 Hz train, read-out: Inh (inhibited fraction)
[6] = HEK293, calculated from Inh at single concentration 100 μM, 5 Hz train
[7] = HEK293, 300 µM, read-out: Inh (inhibited fraction) at holding potential −150 mV
[8] = arithmetic mean, 300 µM, read-out: Ki-Kapp arith
[9] = arithmetic mean, 300 µM, read-out: Kr arith
[10] = geometric mean, from Inh at −150 mV, 300 µM, read-out: Kr (resting state affinity)
[11] = geometric mean, from apparent affinity, 300 µM, read-out: Ki−Kapp (inactivated state affinity)
[12] = HEK293, 100 µM, read-out: Inh (inhibited fraction) at holding potential −150 mV
[13] = arithmetic mean, 100 µM, read-out: Ki-Kapp arith
[14] = arithmetic mean, 100 µM, read-out: Ki-ΔV1/2 arith
[15] = arithmetic mean, 100 µM, read-out: Kr arith
[16] = geometric mean, from Inh at −150 mV, 100 µM, read-out: Kr (resting state affinity)
[17] = geometric mean, from apparent affinity, 100 µM, read-out: Ki−Kapp (inactivated state affinity)
[18] = geometric mean, from shift of availability curve, 100 µM, read-out: Ki−ΔV1/2 (inactivated state affinity)
[19] = 30 μM, 500 s assigned where irreversible
[20] = HEK293, 30 μM, −90 mV holding potential, 5 Hz train, read-out: Inh (inhibited fraction)
[21] = HEK293, calculated from Inh at single concentration 30 μM, 5 Hz train
[22] = HEK293, 30 µM, read-out: Inh (inhibited fraction) at holding potential −150 mV
[23] = arithmetic mean, 30 µM, read-out: Ki-Kapp arith
[24] = arithmetic mean, 30 µM, read-out: Ki-ΔV1/2 arith
[25] = arithmetic mean, 30 µM, read-out: Kr arith
[26] = geometric mean, from Inh at −150 mV, 30 µM, read-out: Kr (resting state affinity)
[27] = geometric mean, from apparent affinity, 30 µM, read-out: Ki−Kapp (inactivated state affinity)
[28] = geometric mean, from shift of availability curve, 30 µM, read-out: Ki−ΔV1/2 (inactivated state affinity)

T1 sequence (P04775 whole entry): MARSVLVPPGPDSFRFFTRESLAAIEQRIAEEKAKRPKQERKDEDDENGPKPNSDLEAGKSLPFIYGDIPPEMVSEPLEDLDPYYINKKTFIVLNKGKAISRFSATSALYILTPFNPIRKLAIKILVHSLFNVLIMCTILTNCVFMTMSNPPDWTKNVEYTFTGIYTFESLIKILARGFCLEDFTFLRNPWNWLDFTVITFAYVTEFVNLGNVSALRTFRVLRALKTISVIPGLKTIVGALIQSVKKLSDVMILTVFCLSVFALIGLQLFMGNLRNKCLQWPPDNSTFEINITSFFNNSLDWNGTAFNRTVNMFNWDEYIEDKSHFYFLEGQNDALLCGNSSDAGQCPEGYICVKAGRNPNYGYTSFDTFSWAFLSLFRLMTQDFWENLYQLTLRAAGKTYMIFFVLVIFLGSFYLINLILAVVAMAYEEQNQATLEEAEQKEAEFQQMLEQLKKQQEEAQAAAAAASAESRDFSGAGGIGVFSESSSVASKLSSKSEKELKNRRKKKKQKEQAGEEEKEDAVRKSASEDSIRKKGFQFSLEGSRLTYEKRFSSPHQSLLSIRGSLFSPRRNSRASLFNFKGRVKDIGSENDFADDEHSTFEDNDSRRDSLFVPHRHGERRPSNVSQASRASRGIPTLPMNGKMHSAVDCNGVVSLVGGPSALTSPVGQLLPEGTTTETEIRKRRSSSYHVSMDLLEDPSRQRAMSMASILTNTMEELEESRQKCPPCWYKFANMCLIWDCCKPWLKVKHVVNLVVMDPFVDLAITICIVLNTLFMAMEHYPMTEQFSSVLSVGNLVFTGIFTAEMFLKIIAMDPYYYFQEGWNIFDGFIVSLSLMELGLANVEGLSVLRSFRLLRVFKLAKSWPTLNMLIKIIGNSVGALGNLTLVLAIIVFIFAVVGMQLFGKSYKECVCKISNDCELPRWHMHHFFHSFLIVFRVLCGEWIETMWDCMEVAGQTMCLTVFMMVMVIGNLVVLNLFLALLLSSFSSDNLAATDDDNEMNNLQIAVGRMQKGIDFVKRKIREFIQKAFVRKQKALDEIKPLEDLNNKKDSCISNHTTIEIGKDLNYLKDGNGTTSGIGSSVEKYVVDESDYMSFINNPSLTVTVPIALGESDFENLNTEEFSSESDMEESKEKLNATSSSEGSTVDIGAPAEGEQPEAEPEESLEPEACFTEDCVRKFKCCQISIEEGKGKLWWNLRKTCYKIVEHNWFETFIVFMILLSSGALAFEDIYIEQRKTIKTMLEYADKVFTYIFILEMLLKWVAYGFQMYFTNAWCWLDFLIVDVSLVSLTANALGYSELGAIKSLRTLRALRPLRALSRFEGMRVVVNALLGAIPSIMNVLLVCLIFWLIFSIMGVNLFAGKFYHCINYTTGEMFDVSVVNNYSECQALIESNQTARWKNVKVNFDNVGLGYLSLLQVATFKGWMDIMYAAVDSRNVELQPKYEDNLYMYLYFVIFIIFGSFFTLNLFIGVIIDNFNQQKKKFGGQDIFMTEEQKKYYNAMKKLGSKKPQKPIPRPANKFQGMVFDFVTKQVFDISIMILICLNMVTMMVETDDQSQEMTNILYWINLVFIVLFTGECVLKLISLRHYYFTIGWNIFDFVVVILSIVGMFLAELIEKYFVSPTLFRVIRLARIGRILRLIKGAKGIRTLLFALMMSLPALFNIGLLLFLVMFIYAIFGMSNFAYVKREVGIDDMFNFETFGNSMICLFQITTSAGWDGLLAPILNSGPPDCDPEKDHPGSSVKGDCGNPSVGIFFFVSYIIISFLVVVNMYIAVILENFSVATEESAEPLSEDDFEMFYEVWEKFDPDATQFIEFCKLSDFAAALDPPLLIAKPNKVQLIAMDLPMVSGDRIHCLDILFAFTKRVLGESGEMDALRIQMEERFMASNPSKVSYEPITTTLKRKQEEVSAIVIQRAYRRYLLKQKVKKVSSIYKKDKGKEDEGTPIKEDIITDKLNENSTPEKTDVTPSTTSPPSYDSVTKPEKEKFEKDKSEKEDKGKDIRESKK

COc1ccccc1OCC(O)CN1CCN(CC(=O)Nc2c(C)cccc2C)CC1 (centres unmarked) [RAN, Ranolazine]
Ki (sodium channels): 75 µM | Kd (sodium channels): 1000 µM | plasma conc. ([1]; as printed in each cell): 3.59 [52] µg/ml | plasma conc. ([1]; as printed in the µg/ml cell): 7.173 µM | τon ([2]; 100 μM): 8.13 s | UD (use-dependence of the inhibition) ([2]; 100 μM, 5 Hz train): 1.21 | τoff [2, 4]: 13.24 s | Rev (reversibility) ([2]; 100 μM): 0.89 | inhibition at 100 µM [2, 5]: 16% | potency estimated from few doses [2, 6]: 355 µM | (IC50/Ki) / (Kr/Ki) ratio ([2]; from IC50 (5 Hz train) and Kr, Ki (steady-state inactivation)): 0.94 | ΔV1/2 (shift of availability curve) ([3]; 300 μM): −5.52 mV | inhibition at 300 µM [3, 7]: 42% | Ki [3, 8]: 19.7 µM | Ki ([3]; arithmetic mean, 300 µM, read-out: Ki-ΔV1/2 arith): 77.9 µM | Kd [3, 9]: 587 µM | Kd [3, 10]: 435 µM | Ki [3, 11]: 10.7 µM | Ki ([3]; geometric mean, from shift of availability curve, 300 µM, read-out: Ki−ΔV1/2 (inactivated state affinity)): 66.8 µM

CC12CC3CC(C)(C1)CC(N)(C3)C2 [MEM, Memantine]
Ki (sodium channels): 6.67 µM | Kd (sodium channels): 178 µM | plasma conc. ([1]; as printed in each cell): 0.02 [53] µg/ml | plasma conc. ([1]; as printed in the µg/ml cell): 0.075 µM | τon ([2]; 100 μM): 3.51 s | UD (use-dependence of the inhibition) ([2]; 100 μM, 5 Hz train): 0.99 | τoff [2, 4]: 8.98 s | Rev (reversibility) ([2]; 100 μM): 0.93 | inhibition at 100 µM [2, 5]: 32% | potency estimated from few doses [2, 6]: 230 µM | ΔV1/2 (shift of availability curve) ([3]; 100 μM): −1.77 mV | inhibition at 100 µM [3, 12]: 29% | Ki [3, 13]: 32.6 µM | Ki [3, 14]: 119 µM | Kd [3, 15]: 248 µM | Kd [3, 16]: 242 µM | Ki [3, 17]: 28.5 µM | Ki [3, 18]: 110 µM

CN(C)CCC=C1c2ccccc2CCc2ccccc21 [AMI, Amitriptyline]
Ki (sodium channels): 0.52 µM | Kd (sodium channels): 38.1 µM | plasma conc. ([1]; as printed in each cell): 0.064 [44] µg/ml | plasma conc. ([1]; as printed in the µg/ml cell): 0.204 µM | τon ([2]; 30 μM): 10.54 s | UD (use-dependence of the inhibition) ([2]; 30 μM, 5 Hz train): 1.66 | τoff [2, 19]: 16.95 s | Rev (reversibility) ([2]; 30 μM): 0.50 | inhibition at 30 µM [2, 20]: 56% | potency estimated from few doses [2, 21]: 23.5 µM | ΔV1/2 (shift of availability curve) ([3]; 10 µM): −11.3 mV | ΔV1/2 (shift of availability curve) ([3]; 30 μM): −11.2 mV | ΔV1/2 (shift of availability curve) ([3]; 100 μM): −18 mV | inhibition at 10 µM ([3]; HEK293, 10 µM, read-out: Inh (inhibited fraction) at holding potential −150 mV): 8% | inhibition at 30 µM [3, 22]: 20% | inhibition at 100 µM [3, 12]: 59% | Ki ([3]; arithmetic mean, 10 µM, read-out: Ki-Kapp arith): 5.17 µM | Ki ([3]; arithmetic mean, 10 µM, read-out: Ki-ΔV1/2 arith): 1.97 µM | Kd ([3]; arithmetic mean, 10 µM, read-out: Kr arith): 155 µM | Ki [3, 23]: 5.13 µM | Ki [3, 24]: 3.78 µM | Kd [3, 25]: 128 µM | Ki [3, 13]: 2.08 µM | Ki [3, 14]: 1.87 µM | Kd [3, 15]: 72.4 µM | Kd ([3]; geometric mean, from Inh at −150 mV, 10 µM, read-out: Kr (resting state affinity)): 134 µM | Kd [3, 26]: 125 µM | Kd [3, 16]: 69.6 µM | Ki ([3]; geometric mean, from apparent affinity, 10 µM, read-out: Ki−Kapp (inactivated state affinity)): 3.34 µM | Ki [3, 27]: 4.92 µM | Ki [3, 17]: 2 µM | Ki ([3]; geometric mean, from shift of availability curve, 10 µM, read-out: Ki−ΔV1/2 (inactivated state affinity)): 1.45 µM | Ki [3, 28]: 3.69 µM | Ki [3, 18]: 1.65 µM

CCCCN1CCCCC1C(=O)Nc1c(C)cccc1C (centres unmarked) [BPV, Bupivacaine]
Ki (sodium channels): 20.1 µM | Kd (sodium channels): 291 µM | plasma conc. ([1]; as printed in each cell): 0.8 [44] µg/ml | plasma conc. ([1]; as printed in the µg/ml cell): 2.462 µM | τon ([2]; 100 μM): 7.95 s | UD (use-dependence of the inhibition) ([2]; 100 μM, 5 Hz train): 1.62 | τoff [2, 4]: 16.73 s | Rev (reversibility) ([2]; 100 μM): 0.75 | use-dependence (UD) ([2]; 5 Hz train): high use-dependence | inhibition at 100 µM [2, 5]: 60% | potency estimated from few doses [2, 6]: 67.7 µM | ΔV1/2 (shift of availability curve) ([3]; 100 μM): −11.3 mV | inhibition at 100 µM [3, 12]: 14% | Ki [3, 13]: 8.21 µM | Ki [3, 14]: 6.46 µM | Kd [3, 15]: 635 µM | Kd [3, 16]: 619 µM | Ki [3, 17]: 7.79 µM | Ki [3, 18]: 5.85 µM

Cc1cccc(C)c1OCC(C)N (centres unmarked) [MEX, Mexiletine]
Ki (sodium channels): 12.4 µM | Kd (sodium channels): 395 µM | plasma conc. ([1]; as printed in each cell): 2 [44] µg/ml | plasma conc. ([1]; as printed in the µg/ml cell): 9.271 µM | τoff ([2]; 300 μM): 12.93 s | τon ([2]; 300 μM, 3 s assigned where too short to be resolved): 8.6 s | UD (use-dependence of the inhibition) ([2]; 300 μM, 5 Hz train): 1.39 | Rev (reversibility) ([2]; 300 μM): 0.78 | inhibition at 300 µM ([2]; HEK293, 300 μM, −90 mV holding potential, 5 Hz train, read-out: Inh (inhibited fraction)): 57% | potency estimated from few doses ([2]; HEK293, calculated from Inh at single concentration 300 μM, 5 Hz train): 231 µM | ΔV1/2 (shift of availability curve) ([3]; 300 μM): −10.3 mV | inhibition at 300 µM [3, 7]: 32% | Ki ([3]; Ki-ΔV1/2 arith, arithmetic mean, 300 µM): 37.3 µM | Ki ([3]; Ki−ΔV1/2 (inactivated state affinity), geometric mean, from shift of availability curve, 300 µM): 26.8 µM | Ki [3, 8]: 19.2 µM | Kd [3, 9]: 662 µM | Kd [3, 10]: 638 µM | Ki [3, 11]: 17.9 µM

Cc1ccc(C(=O)C(C)CN2CCCCC2)cc1 (centres unmarked) [TOL, Tolperisone]
Ki (sodium channels): 5.07 µM | Kd (sodium channels): 384 µM | plasma conc. ([1]; as printed in each cell): 0.43 [57] µg/ml | plasma conc. ([1]; as printed in the µg/ml cell): 1.508 µM | τon ([2]; 100 μM): 5.57 s | UD (use-dependence of the inhibition) ([2]; 100 μM, 5 Hz train): 1.14 | τoff [2, 4]: 7.42 s | Rev (reversibility) ([2]; 100 μM): 0.95 | inhibition at 100 µM [2, 5]: 23% | potency estimated from few doses [2, 6]: 336 µM | ΔV1/2 (shift of availability curve) ([3]; 100 μM): −6.47 mV | inhibition at 100 µM [3, 12]: 21% | Ki [3, 13]: 24.3 µM | Ki [3, 14]: 43.2 µM | Kd [3, 15]: 399 µM | Kd [3, 16]: 391 µM | Ki [3, 17]: 21 µM and 21.1 µM | Ki [3, 18]: 30.9 µM

Fc1ccc([C@@H]2CCNC[C@H]2COc2ccc3c(c2)OCO3)cc1 [PRX, Paroxetine]
Ki (sodium channels): 1.45 µM | Kd (sodium channels): 17 µM | plasma conc. ([1]; as printed in each cell): 0.38 [44] µg/ml | τon ([2]; 30 μM): 32.07 s | UD (use-dependence of the inhibition) ([2]; 30 μM, 5 Hz train): 1.46 | τoff [2, 19]: 35.99 s | Rev (reversibility) ([2]; 30 μM): 0.34 | inhibition at 30 µM [2, 20]: 65% | potency estimated from few doses [2, 21]: 16.2 µM | ΔV1/2 (shift of availability curve) ([3]; 30 μM): −11.4 mV | inhibition at 30 µM [3, 22]: 55% | Ki [3, 23]: 1.63 µM | Ki [3, 24]: 8.99 µM | Kd [3, 25]: 32.1 µM | Kd [3, 26]: 24.2 µM | Ki [3, 27]: 0.73 µM | Ki [3, 28]: 1.99 µM
